Legend:
[1] = target: T1, GSK-3β (AA 1-420) (Homo sapiens, UniProt P49841); test: Ki determination for the inhibition of GSK-3 (coupled enzyme system); format: biochemical; settings: 20 μM ATP, 20 nM GSK-3β, 30° C.
T1 construct: GSK-3β (AA 1-420)
Method in brief: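 GSK-3β (AA 1-420, 20 nM) was run in a pyruvate kinase/LDH-coupled NADH assay in 100 mM HEPES pH 7.5, 10 mM MgCl2, 25 mM NaCl, 1 mM DTT, 1.5% DMSO, with 300 μM phosphopeptide substrate. Compound (0.002–30 μM) was preincubated 10 min at 30° C, then 20 μM ATP was added.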

[2] = target: T2, Aurora-2 (Homo sapiens, UniProt O14965); test: Ki determination for the inhibition of Aurora-2 (coupled enzyme assay); format: biochemical; settings: 70 nM Aurora-2, 30° C.
T2 sequence (O14965 1-403): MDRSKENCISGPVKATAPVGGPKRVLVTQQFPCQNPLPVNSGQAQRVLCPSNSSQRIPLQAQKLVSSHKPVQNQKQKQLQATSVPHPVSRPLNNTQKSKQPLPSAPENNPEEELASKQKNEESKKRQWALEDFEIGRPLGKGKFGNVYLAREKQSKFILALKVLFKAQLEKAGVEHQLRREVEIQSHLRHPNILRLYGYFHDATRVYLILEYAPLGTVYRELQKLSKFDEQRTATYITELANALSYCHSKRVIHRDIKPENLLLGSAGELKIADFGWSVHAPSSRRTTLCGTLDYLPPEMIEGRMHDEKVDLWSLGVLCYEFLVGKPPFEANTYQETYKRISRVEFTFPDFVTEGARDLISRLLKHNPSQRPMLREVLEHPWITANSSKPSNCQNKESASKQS
Experimental: Compounds were screened in the following manner for their ability to inhibit Aurora-2 using a standard coupled enzyme assay (Fox et al (1998) Protein Sci 7, 2249).
To an assay stock buffer solution containing 0.1M HEPES 7.5, 10 mM MgCl2, 1 mM DTT, 25 mM NaCl, 2.5 mM phosphoenolpyruvate, […], 30 mg/ml pyruvate kinase, 10 mg/ml lactate dehydrogenase, […], and 800 μM peptide (LRRASLG, American Peptide, Sunnyvale, Calif.) was added a DMSO solution of a compound of the present invention to a final concentration of 30 μM. The resulting mixture was incubated at 30° C. for 10 min. The reaction was initiated by the addition of 10 μL of Aurora-2 stock solution to give a final concentration of 70 nM in the assay. The rates of reaction were obtained by monitoring absorbance at 340 nm over a 5 minute read time at 30° C. using a BioRad Ultramark plate reader (Hercules, Calif.). The Ki values were determined from the rate data as a function of inhibitor concentration.

T1 sequence (P49841 whole entry, the tested form may be a part): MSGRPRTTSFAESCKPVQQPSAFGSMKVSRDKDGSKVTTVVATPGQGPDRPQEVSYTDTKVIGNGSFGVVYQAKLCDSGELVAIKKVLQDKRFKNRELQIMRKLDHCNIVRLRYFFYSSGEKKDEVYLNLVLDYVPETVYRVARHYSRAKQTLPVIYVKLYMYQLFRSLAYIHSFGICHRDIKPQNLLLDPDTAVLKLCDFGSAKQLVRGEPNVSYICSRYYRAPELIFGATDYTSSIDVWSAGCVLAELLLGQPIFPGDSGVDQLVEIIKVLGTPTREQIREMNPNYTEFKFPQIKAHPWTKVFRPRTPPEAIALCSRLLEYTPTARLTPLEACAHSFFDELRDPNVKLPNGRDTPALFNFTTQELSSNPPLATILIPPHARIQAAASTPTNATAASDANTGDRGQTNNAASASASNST

melting point | Ki [1] [µM] | Ki [2] [µM] | SMILES
277 to 278 °C | 0.1 to 1 | < 0.1 | COc1ccc(Oc2nc(Nc3cc(C)[nH]n3)c3ccccc3n2)cc1OC [IIb-7, [2-(3,4-Dimethoxyphenoxy)-quinazolin-4-yl]-(5-methyl-2N-pyrazol-3-yl)-amine]
273 to 275 °C | < 0.1 | < 0.1 | Cc1cc(Nc2nc(Sc3ccccc3O)nc3ccccc23)n[nH]1 [IIa-11, [2-(2-Hydroxyphenylsulfanyl)-quinazolin-4-yl]-(5-methyl-2H-pyrazol-3-yl)-amine]
205 to 208 °C | 0.1 to 1 | < 0.1 | CCc1ccccc1Sc1nc(Nc2cc(C)[nH]n2)c2ccccc2n1 [IIa-5, [2-(2-Ethylphenylsulfanyl)-quinazolin-4-yl]-(5-methyl-2H-pyrazol-3-yl)-amine]
285 to 287 °C | 1 to 7 | < 0.1 | Cc1cc(Nc2nc(Sc3ccc(NC(=O)C(C)C)cc3)nc3ccccc23)n[nH]1 [IIa-49, [2-(4-Isobutyrylamino-phenylsulfanyl)-quinazolin-4-yl]-(5-methyl-2H-pyrazol-3-yl)-amine]
265 to 268 °C | 1 to 7 | < 0.1 | COc1cccc2c(Nc3cc(C4CC4)[nH]n3)nc(Sc3ccc(NC(C)=O)cc3)nc12 [IIa-72, [2-(4-Acetamido-phenylsulfanyl)-8-methoxy-quinazolin-4-yl]-(5-cyclopropyl-2H-pyrazol-3-yl)-amine]
298 to 302 °C | 0.1 to 1 | < 0.1 | O=C(O)c1cccc(Nc2nc(Nc3cc(C4CC4)[nH]n3)c3ccccc3n2)c1 [IIc-40, [2-(3-Carboxyphenylamino)-quinazolin-4-yl]-(5-cyclopropyl-2H-pyrazol-3-yl)-amine]
189 °C | 0.1 to 1 | < 0.1 | c1ccc(CCCNc2nc(Nc3cc(C4CC4)[nH]n3)c3ccccc3n2)cc1 [IIc-47, (5-Cyclopropyl-2H-pyrazol-3-yl)-[2-(3-phenylprop-1-ylamino)-quinazolin-4-yl]-amine]
> 300 °C | 0.1 to 1 | < 0.1 | Cc1cc(Nc2nc(Sc3ccc(N)cc3)nc3ccccc23)n[nH]1 [IIa-62, [2-(4-Amino-phenylsulfanyl)-quinazolin-4-yl]-(5-methyl-2H-pyrazol-3-yl)-amine]
> 300 °C | < 0.1 | < 0.1 | Cc1cc(Nc2nc(Sc3ccc(Br)cc3)nc3ccccc23)n[nH]1 [IIa-46, [2-(4-Bromophenylsulfanyl)-quinazolin-4-yl]-(5-methyl-2H-pyrazol-3-yl)-amine]
245 to 246 °C | 0.1 to 1 | < 0.1 | COC(=O)c1ccc(Sc2nc(Nc3cc(C4CC4)[nH]n3)c3ccccc3n2)cc1 [IIa-35, (5-Cyclopropyl-2H-pyrazol-3-yl)-[2-(4-methoxycarbonylphenylsulfanyl)-quinazolin-4-yl]-amine]
192 to 193 °C | 1 to 7 | 0.1 to 1 | Cc1cc(Nc2nc(Sc3ccc(C(=O)NCCN(C)C)cc3)nc3ccccc23)n[nH]1 [IIa-67, {2-[4-(2-Dimethylamino-ethylcarbamoyl)-phenylsulfanyl]-quinazolin-4-yl}-(5-methyl-2H-pyrazol-3-yl)-amine]
225 to 227 °C | 0.1 to 1 | < 0.1 | Cc1cc(Nc2nc(NCc3ccccc3)nc3ccccc23)n[nH]1 [IIc-5, (2-Benzylamino-quinazolin-4-yl)-(5-methyl-2H-pyrazol-3-yl)-amine]
257 to 260 °C | 0.1 to 1 | < 0.1 | COC(=O)c1ccc(Sc2nc(Nc3cc(C)[nH]n3)c3ccccc3n2)cc1 [IIa-42, [2-(4-Methoxycarbonylphenylsulfanyl)-quinazolin-4-yl]-(5-methyl-2H-pyrazol-3-yl)-amine]
262 to 264 °C | 0.1 to 1 | < 0.1 | CC(=O)Nc1ccc(Sc2nc(Nc3cc(C)[nH]n3)c3cccc(OCCCN4CCOCC4)c3n2)cc1 [IIa-41, [2-(4-Acetamidophenylsulfanyl)-8-(3-morpholin-4-yl-propoxy)-quinazolin-4-yl]-(5-methyl-2H-pyrazol-3-yl)-amine]
296 to 299 °C (dec.) | < 0.1 | < 0.1 | Cc1cc(Nc2nc(Oc3ccc4c(c3)OCO4)nc3ccccc23)n[nH]1 [IIb-8, [2-(Benzo[1,3]dioxol-5-yloxy)-quinazolin-4-yl]-(5-methyl-2H-pyrazol-3-yl)-amine]
224 to 225 °C | < 0.1 | < 0.1 | COC(=O)c1cccc(Sc2nc(Nc3cc(C4CC4)[nH]n3)c3ccccc3n2)c1 [IIa-22, (5-Cyclopropyl-2H-pyrazol-3-yl)-[2-(3-methoxycarbonylphenylsulfanyl)-quinazolin-4-yl]-amine]
294 to 296 °C | 0.1 to 1 | < 0.1 | CC(=O)Nc1ccc(Nc2nc(Nc3cc(C)[nH]n3)c3ccccc3n2)cc1C#N [IIc-57, [2-(4-Acetamido-3-cyanophenylamino)-quinazolin-4-yl]-(5-methyl-2H-pyrazol-3-yl)-amine]
245 °C (dec.) | 0.1 to 1 | < 0.1 | Cc1cc(Nc2nc(Nc3ccc(CC(=O)O)c(C)c3)nc3ccccc23)n[nH]1 [IIc-65, [2-(4-Carboxymethyl-3-methylphenylamino)-quinazolin-4-yl]-(5-methyl-2H-pyrazol-3-yl)-amine]
264 to 265 °C |  | < 0.1 | CC(=O)Nc1ccc(Sc2nc(Nc3cc(C)[nH]n3)c3ccc(N)cc3n2)cc1 [IIa-59, [2-(4-Acetamido-phenylsulfanyl)-7-aminoquinazolin-4-yl]-(5-methyl-2H-pyrazol-3-yl)-amine]
266 to 267 °C |  | < 0.1 | Cc1cc(Nc2nc(Sc3ccc(NC(=O)CN4CCOCC4)cc3)nc3ccccc23)n[nH]1 [IIa-60, (5-Methyl-2H-pyrazol-3-yl)-{2-[4-(2-morpholin-4-yl-acetylamino)-phenylsulfanyl]-quinazolin-4-yl}-amine]

SMILES | melting point | Ki [1] [µM] | Ki [2] [µM]
Cc1cc(Nc2nc(Sc3cccc(Br)c3)nc3ccccc23)n[nH]1 [IIa-47, [2-(3-Bromophenylsulfanyl)-quinazolin-4-yl]-(5-methyl-2H-pyrazol-3-yl)-amine] | 280 to 281 °C | < 0.1 | < 0.1
Cc1cc(Nc2nc(Sc3ccc(NS(C)(=O)=O)cc3)nc3c(O)cccc23)n[nH]1 [IIa-69, [8-Hydroxy-2-(4-methylsulfonylamino-phenylsulfanyl)-quinazolin-4-yl]-(5-methyl-2H-pyrazol-3-yl)-amine] | 291 to 293 °C | 0.1 to 1 | < 0.1
CCCc1ccc(Nc2nc(Nc3cc(C4CC4)n[nH]3)c3ccccc3n2)cc1 [IIc-26, (5-Cyclopropyl-2H-pyrazol-3-yl)-[2-(4-propylphenylamino)-quinazolin-4-yl]-amine] | 255 to 256 °C | 0.1 to 1 | < 0.1
Cc1cc(Nc2nc(Oc3ccc4ccccc4c3)nc3ccccc23)n[nH]1 [IIb-2, (5-Methyl-2H-pyrazol-3-yl)-[2-(naphthalen-2-yloxy)-quinazolin-4-yl]-amine] | > 300 °C |  | < 0.1
